From patent US20140309265A1, “MACROCYCLIC COMPOUNDS FOR INHIBITION OF INHIBITORS OF APOPTOSIS” (Ensemble Therapeutics, priority 2011, published 2014)
Read-outs that look alike come from different tables or passages of the source.

Key:
[1] = biological target: N-His-Tb-BIR3(241-356, XIAP) (Homo sapiens, UniProt P98170); assay: XIAP-BIR3 SMAC Peptide Fluorescence Polarization Assay (FPA); assay type: binding
[2] = biological target: T1, XIAP His-BIR2 (124-240/C202A/C213G) (Homo sapiens, UniProt P98170, C202A/C213G); assay: XIAP-BIR2/SMAC Peptide AlphaScreen Assay; assay type: binding
T1 construct: additions of His-BIR2 (124-240/C202A/C213G), Biotinylated SMAC peptide
T1 sequence (P98170 124-240 C202A/C213G): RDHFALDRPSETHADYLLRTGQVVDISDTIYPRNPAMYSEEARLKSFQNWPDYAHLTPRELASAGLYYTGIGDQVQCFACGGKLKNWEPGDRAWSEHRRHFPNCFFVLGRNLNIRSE
Description: A. XIAP-BIR2/SMAC Peptide AlphaScreen Assay Assays were performed in white, flat-bottom, 384-well ProxiPlates (Perkin Elmer). […] The reaction was incubated at room temperature for 60 minutes. After 60 minutes, 2.5 μL of Alphascreen detection reagent (Perkin Elmer) was added to the reaction mixture and incubated at room temperature in the dark for 120 minutes. The Alphascreen signal generated by the reaction was detected on the Envision Plate Reader. […] Compounds were dissolved at 10 mM in dimethylsulfoxide (DMSO) and evaluated at eleven concentrations. IC50 values were derived by non-linear regression analysis.

[3] = XIAP BIR2, Alphascreen, Table 4, read-out: BIR2 Alpha Screen IC50
[4] = XIAP BIR2, AlphaScreen, Table 2, read-out: BIR2 IC50

N-His-Tb-BIR3(241-356, XIAP), sequence (P98170 241-356): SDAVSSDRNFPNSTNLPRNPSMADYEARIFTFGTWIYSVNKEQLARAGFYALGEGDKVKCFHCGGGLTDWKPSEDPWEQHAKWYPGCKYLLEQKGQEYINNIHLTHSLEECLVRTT

Structure (SMILES)	IC50 [1] [nM]	IC50 [2, 3] [nM]	IC50 [2, 4] [nM]	IC50 ([1]; XIAP BIR3, FPA, Table 2, read-out: BIR3 IC50) [nM]
CCS(=O)(=O)NC(=O)[C@@H]1Cc2ccc(cc2)OCc2cn(nn2)[C@H]2C[C@@H](C(=O)N[C@@H](Cc3ccc4ccccc4c3)C(=O)N[C@H](C(=O)NS(=O)(=O)CC)Cc3ccc(cc3)OCc3cn(nn3)[C@H]3C[C@@H](C(=O)N[C@@H](Cc4ccc5ccccc5c4)C(=O)N1)N(C(=O)[C@@H](NC(=O)[C@H](C)NC)C(C)(C)C)C3)N(C(=O)[C@@H](NC(=O)[C@H](C)NC)C(C)(C)C)C2 [Compound 1005]	< 50	< 2000	–	–
CN[C@@H](C)C(=O)N[C@H](C(=O)N1C[C@@H]2C[C@H]1C(=O)N[C@@H](Cc1ccccc1)C(=O)N[C@H](C(=O)N1CCN(C)CC1)Cc1ccc(cc1)OCc1cn(nn1)[C@H]1C[C@@H](C(=O)N[C@@H](Cc3ccccc3)C(=O)N[C@H](C(=O)N3CCN(C)CC3)Cc3ccc(cc3)OCc3cn2nn3)N(C(=O)[C@@H](NC(=O)[C@H](C)NC)C(C)C)C1)C(C)C [Compound 104]	50 to 100	–	> 12000	–
CN[C@@H](C)C(=O)N[C@H](C(=O)N1C[C@@H]2C[C@H]1C(=O)N[C@@H](Cc1ccc3ccccc3c1)C(=O)N[C@H](C(=O)NS(=O)(=O)C(F)(F)F)Cc1ccc(cc1)OCc1cn(nn1)[C@H]1C[C@@H](C(=O)N[C@@H](Cc3ccc4ccccc4c3)C(=O)N[C@H](C(=O)NS(=O)(=O)C(F)(F)F)Cc3ccc(cc3)OCc3cn2nn3)N(C(=O)[C@@H](NC(=O)[C@H](C)NC)C(C)(C)C)C1)C(C)(C)C [Compound 1007]	50 to 100	2000 to 12000	–	–
CN[C@@H](C)C(=O)N[C@H](C(=O)N1C[C@@H]2C[C@H]1C(=O)N[C@@H](CCc1ccccc1)C(=O)N[C@H](C(=O)O)Cc1ccc(cc1)OCc1cn(nn1)[C@H]1C[C@@H](C(=O)N[C@@H](CCc3ccccc3)C(=O)N[C@H](C(=O)O)Cc3ccc(cc3)OCc3cn2nn3)N(C(=O)[C@@H](NC(=O)[C@H](C)NC)C(C)C)C1)C(C)C [Compound 107]	> 100	–	< 2000	–
CN[C@@H](C)C(=O)N[C@H](C(=O)N1C[C@@H]2C[C@H]1C(=O)N[C@@H](Cc1ccc(OCc3ccccc3)cc1)C(=O)N[C@H](C(=O)O)Cc1ccc(cc1)COc1cn(nn1)[C@H]1C[C@@H](C(=O)N[C@@H](Cc3ccc(OCc4ccccc4)cc3)C(=O)N[C@H](C(=O)O)Cc3ccc(cc3)OCc3cn2nn3)N(C(=O)[C@@H](NC(=O)[C@H](C)NC)C(C)C)C1)C(C)C [Compound 115]	< 50	–	2000 to 12000	–
CCN(CC)C(=O)[C@@H]1Cc2ccc(cc2)OCc2cn(nn2)[C@H]2C[C@@H](C(=O)N[C@@H](Cc3ccccc3)C(=O)N[C@H](C(=O)N(CC)CC)Cc3ccc(cc3)OCc3cn(nn3)[C@H]3C[C@@H](C(=O)N[C@@H](Cc4ccccc4)C(=O)N1)N(C(=O)[C@@H](NC(=O)[C@H](C)NC)C(C)C)C3)N(C(=O)[C@@H](NC(=O)[C@H](C)NC)C(C)C)C2 [Compound 105]	50 to 100	–	> 12000	–
CN[C@@H](C)C(=O)N[C@H](C(=O)N1C[C@@H]2C[C@H]1C(=O)N[C@@H](Cc1ccccc1)C(=O)N[C@H](C(=O)O)Cc1ccc(cc1)OCc1cn(nn1)[C@H]1C[C@@H](C(=O)N[C@@H](Cc3ccccc3)C(=O)N[C@H](C(=O)O)Cc3ccc(cc3)OCc3cn2nn3)N(C(=O)[C@@H](NC(=O)[C@H](C)NC)C(C)C)C1)C(C)C [Compound 101]	50 to 100	–	< 2000	–
CN[C@@H](C)C(=O)N[C@H](C(=O)N1C[C@@H]2C[C@H]1C(=O)N[C@@H](Cc1ccc3ccccc3c1)C(=O)N(C)[C@H](C(=O)O)Cc1ccc(cc1)OCc1cn(nn1)[C@H]1C[C@@H](C(=O)N[C@@H](Cc3ccc4ccccc4c3)C(=O)N(C)[C@H](C(=O)O)Cc3ccc(cc3)OCc3cn2nn3)N(C(=O)[C@@H](NC(=O)[C@H](C)NC)C(C)C)C1)C(C)C [Compound 134]	50 to 100	–	< 2000	–
CN[C@@H](C)C(=O)N[C@H](C(=O)N1C[C@@H]2C[C@H]1C(=O)N[C@@H](Cc1ccc(OC)c(OC)c1)C(=O)N[C@H](C(=O)O)Cc1ccc(cc1)OCc1cn(nn1)[C@H]1C[C@@H](C(=O)N[C@@H](Cc3ccc(OC)c(OC)c3)C(=O)N[C@H](C(=O)O)Cc3ccc(cc3)OCc3cn2nn3)N(C(=O)[C@@H](NC(=O)[C@H](C)NC)C2CCCCC2)C1)C1CCCCC1 [Compound 132]	> 100	–	> 12000	–
CN[C@@H](C)C(=O)N[C@H](C(=O)N1C[C@@H]2C[C@H]1C(=O)N[C@@H](Cc1cccc(C(F)(F)F)c1)C(=O)N[C@H](C(=O)O)Cc1ccc(cc1)OCc1cn(nn1)[C@H]1C[C@@H](C(=O)N[C@@H](Cc3cccc(C(F)(F)F)c3)C(=O)N[C@H](C(=O)O)Cc3ccc(cc3)OCc3cn2nn3)N(C(=O)[C@@H](NC(=O)[C@H](C)NC)C2CCCCC2)C1)C1CCCCC1 [Compound 130]	< 50	–	2000 to 12000	–
CN[C@@H](C)C(=O)N[C@@H](C)C(=O)N1C[C@@H]2C[C@H]1C(=O)N[C@@H](Cc1ccccc1)C(=O)N[C@H](C(=O)O)Cc1ccc(cc1)OCc1cn(nn1)[C@H]1C[C@@H](C(=O)N[C@@H](Cc3ccccc3)C(=O)N[C@H](C(=O)O)Cc3ccc(cc3)OCc3cn2nn3)N(C(=O)[C@H](C)NC(=O)[C@H](C)NC)C1 [Compound 118]	50 to 100	–	> 12000	–
CN[C@@H](C)C(=O)NCC1(C(=O)N2C[C@@H]3C[C@H]2C(=O)N[C@@H](Cc2ccccc2)C(=O)N[C@H](C(=O)O)Cc2ccc(cc2)OCc2cn(nn2)[C@H]2C[C@@H](C(=O)N[C@@H](Cc4ccccc4)C(=O)N[C@H](C(=O)O)Cc4ccc(cc4)OCc4cn3nn4)N(C(=O)C3(CNC(=O)[C@H](C)NC)CC3)C2)CC1 [Compound 121]	–	–	> 12000	> 100
CN[C@@H](C)C(=O)N[C@H](C(=O)N1C[C@@H]2C[C@H]1C(=O)N[C@@H](Cc1ccccc1)C(=O)N[C@H](C(=O)O)Cc1ccc(cc1)OCc1cn(nn1)[C@H]1C[C@@H](C(=O)N[C@@H](Cc3ccc4ccccc4c3)C(=O)N[C@H](C(=O)OC)Cc3ccc(cc3)OCc3cn2nn3)N(C(=O)[C@@H](NC(=O)[C@H](C)NC)C(C)(C)C)C1)C(C)(C)C [Compound 150]	50 to 100	< 2000	–	–
CN[C@@H](C)C(=O)N[C@H](C(=O)N1C[C@@H]2C[C@H]1C(=O)N[C@@H](Cc1csc3ccccc13)C(=O)N[C@H](C(=O)O)Cc1ccc(cc1)OCc1cn(nn1)[C@H]1C[C@@H](C(=O)N[C@@H](Cc3csc4ccccc34)C(=O)N[C@H](C(=O)O)Cc3ccc(cc3)OCc3cn2nn3)N(C(=O)[C@@H](NC(=O)[C@H](C)NC)C(C)C)C1)C(C)C [Compound 124]	< 50	–	< 2000	–
CC[C@H](NC(=O)[C@H](C)NC)C(=O)N1C[C@@H]2C[C@H]1C(=O)N[C@@H](Cc1ccccc1)C(=O)N[C@H](C(=O)O)Cc1ccc(cc1)OCc1cn(nn1)[C@H]1C[C@@H](C(=O)N[C@@H](Cc3ccccc3)C(=O)N[C@H](C(=O)O)Cc3ccc(cc3)OCc3cn2nn3)N(C(=O)[C@H](CC)NC(=O)[C@H](C)NC)C1 [Compound 117]	< 50	–	< 2000	–
CN[C@@H](C)C(=O)N[C@H](C(=O)N1C[C@@H]2C[C@H]1C(=O)N[C@@H](Cc1ccccc1)C(=O)N(C)[C@H](C(=O)O)Cc1ccc(cc1)OCc1cn(nn1)[C@H]1C[C@@H](C(=O)N[C@@H](Cc3ccccc3)C(=O)N(C)[C@H](C(=O)O)Cc3ccc(cc3)OCc3cn2nn3)N(C(=O)[C@@H](NC(=O)[C@H](C)NC)C(C)C)C1)C(C)C [Compound 133]	< 50	–	< 2000	–
CN[C@@H](C)C(=O)N[C@H](C(=O)N1C[C@@H]2C[C@H]1C(=O)N[C@@H](Cc1ccc(-c3ccccc3)cc1)C(=O)N[C@H](C(=O)O)Cc1ccc(cc1)COc1cn(nn1)[C@H]1C[C@@H](C(=O)N[C@@H](Cc3ccc(-c4ccccc4)cc3)C(=O)N[C@H](C(=O)O)Cc3ccc(cc3)OCc3cn2nn3)N(C(=O)[C@@H](NC(=O)[C@H](C)NC)C(C)C)C1)C(C)C [Compound 114]	< 50	–	< 2000	–
CN[C@@H](C)C(=O)N[C@H](C(=O)N1C[C@@H]2C[C@H]1C(=O)N[C@@H](Cc1ccccc1)C(=O)N[C@H](C(=O)O)Cc1ccc(cc1)OCc1cn(nn1)[C@H]1C[C@@H](C(=O)N[C@@H](Cc3ccc4ccccc4c3)C(=O)N[C@H](C(=O)O)Cc3ccc(cc3)OCc3cn2nn3)N(C(=O)[C@@H](NC(=O)[C@H](C)NC)C(C)(C)C)C1)C(C)(C)C [Compound 149]	< 50	< 2000	–	–
CN[C@@H](C)C(=O)N[C@H](C(=O)N1C[C@@H]2C[C@H]1C(=O)N[C@@H](Cc1ccccc1)C(=O)N[C@@H](C(=O)O)Cc1ccc(cc1)NC(=O)CCc1cn(nn1)[C@H]1C[C@@H](C(=O)N[C@@H](Cc3ccccc3)C(=O)N[C@@H](C(=O)O)Cc3ccc(cc3)NC(=O)CCc3cn2nn3)N(C(=O)[C@@H](NC(=O)[C@H](C)NC)C(C)C)C1)C(C)C [Compound 102]	50 to 100	–	< 2000	–
CN[C@@H](C)C(=O)N[C@H](C(=O)N1C[C@@H]2C[C@H]1C(=O)N[C@@H](Cc1ccc(OC)c(OC)c1)C(=O)N[C@H](C(=O)O)Cc1ccc(cc1)OCc1cn(nn1)[C@H]1C[C@@H](C(=O)N[C@@H](Cc3ccc(OC)c(OC)c3)C(=O)N[C@H](C(=O)O)Cc3ccc(cc3)OCc3cn2nn3)N(C(=O)[C@@H](NC(=O)[C@H](C)NC)C(C)(C)C)C1)C(C)(C)C [Compound 131]	> 100	–	2000 to 12000	–
CN[C@@H](C)C(=O)N[C@H](C(=O)N1C[C@@H]2C[C@H]1C(=O)N[C@@H](Cc1cccc(C(F)(F)F)c1)C(=O)N[C@H](C(=O)O)Cc1ccc(cc1)COc1cn(nn1)[C@H]1C[C@@H](C(=O)N[C@@H](Cc3cccc(C(F)(F)F)c3)C(=O)N[C@H](C(=O)O)Cc3ccc(cc3)OCc3cn2nn3)N(C(=O)[C@@H](NC(=O)[C@H](C)NC)C(C)C)C1)C(C)C [Compound 112]	< 50	–	2000 to 12000	–
